From US20030055065A1, “Tricyclic amide and urea compounds useful for inhibition of G-protein function and for treatment of proliferative diseases” (priority 1993, published 2003)
“And” between values parts separate entries of the source, which are not always exact repeats. Equal entries are not always repeated. Where two headings read alike, the source gives them in different places.

Legend:
[1] = target: T1, farnesyl protein transferase (FPT), partially purified from rat brain (Rattus norvegicus, UniProt Q02293+Q04631); experiment: Inhibition of farnesyl protein transferase (transfer of [3H]farnesyl to Ras-CVLS); format: biochemical
T1 construct: were partially purified from rat brain by ammonium sulfate fractionation followed by Q-Sepharose
T1 sequence (Q02293 whole entry, one chain of several): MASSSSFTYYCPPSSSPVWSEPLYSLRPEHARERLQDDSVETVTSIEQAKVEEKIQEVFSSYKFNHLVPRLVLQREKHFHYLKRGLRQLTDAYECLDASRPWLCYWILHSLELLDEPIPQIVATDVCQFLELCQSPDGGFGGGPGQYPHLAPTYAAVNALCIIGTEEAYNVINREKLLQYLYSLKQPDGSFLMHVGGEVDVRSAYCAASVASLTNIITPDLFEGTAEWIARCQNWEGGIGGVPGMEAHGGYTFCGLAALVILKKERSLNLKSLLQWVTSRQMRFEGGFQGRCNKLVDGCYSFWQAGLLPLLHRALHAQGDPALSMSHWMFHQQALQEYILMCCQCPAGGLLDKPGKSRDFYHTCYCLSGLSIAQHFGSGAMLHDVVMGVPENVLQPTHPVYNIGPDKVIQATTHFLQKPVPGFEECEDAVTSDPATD
Procedure, shortened: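 Transfer of [3H]farnesyl onto E. coli-expressed, His6-tagged Ras-CVLS was measured after 30 min at room temperature. Radiolabelled Ras was TCA-precipitated on ice and filter-harvested, and inhibition was expressed as percent of DMSO control.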

[2] = tested on: Ras-CVLS processing in COS monkey kidney cells; experiment: COS cell assay: Ras-CVLS processing (Western blot); format: cell-based; settings: COS cells; for IC50: read-out: Inhibition of Ras Processing IC50
Procedure: 2. […] Effect of farnesyl protein transferase inhibitors on Ras processing and on disordered cell growth induced by transforming Ras. COS monkey kidney cells were transfected by electroporation with the plasmid pSV-SPORT (Gibco/BRL) containing a cDNA insert encoding either Ras-CVLS or Ras-CVLL, leading to transient overexpression of a Ras substrate for either farnesyl protein transferase or geranylgeranyl protein transferase I, respectively (see above). […] After 24 hours, media was removed and fresh media containing the appropriate drugs was re-added. 48 hours after electroporation cells were examined under the microscope to monitor disordered cell growth induced by transforming Ras. Cells expressing transforming Ras become more rounded and refractile and overgrow the monolayer, reminiscent of the transformed phenotype. […] Cells were lysed by homogenization and cell debris was removed by centrifugation at 2000×g for 10 min. Cellular protein was precipitated by addition of ice-cold trichloroacetic acid and redissolved in 100 μl of SDS-electrophoresis sample buffer. […] Proteins resolved on the gels were electroblotted onto nitrocellulose membranes for immunodetection. […] E., et al., (1982), Monoclonal antibodies to the p21 products of the transforming gene of Harvey murine sarcome virus and of the cellular ras gene family, J. Virol. 43: 294-304), in PBS containing 1% fetal calf serum for one hour at room temperature. After washing, membranes were incubated for one hour at room temperature with a 1:5000 dilution of secondary antibody, rabbit anti-rat IgG conjugated to horseradish peroxidase, in PBS containing 1% fetal calf serum.

[3] = tested on: Normal human HEPM fibroblasts; experiment: Cell Mat Assay: density of mat cells (mIC50); format: cell-based
Procedure: (§1) Compound-induced colony inhibition was assayed by addition of serial dilutions of compound directly to the growth medium 24 h after tumor cell planting, and incubating cells for an additional 14 d to allow colony formation. Assays were terminated by rinsing monolayers twice with phosphate-buffered saline (PBS), fixing the monolayers with a 1% glutaraldehyde solution in PBS, then visualizing tumor cells by staining with X-Gal (Price, J., et al., Lineage analysis in the vertebrate nervous system by retrovirus-mediated gene transfer, Proc. Natl. Acad. Sci.84, 156-160(1987)). […] Both IC50 values were obtained by determining the density of tumor cells and mat cells by visual inspection and enumeration of cells per colony and the number of colonies under the microscope.

[4] = tested on: T24-BAG4 human bladder carcinoma cells expressing an activated H-ras gene; experiment: Cell Mat Assay: tumor cell colony inhibition (tIC50); format: cell-based; settings: inhibition of tumor cell growth
Procedure: as §1

[5] = Ras-CVLS farnesylation, partially purified rat brain FPT, read-out: FPT IC50
[6] = enzyme inhibition, read-out: FPT IC50

Row | Compound | IC50 [1, 5] | IC50 ([2]; Primates, COS) | IC50 ([4]; Homo sapiens) | IC50 ([3]; Homo sapiens, Fibroblast) | further results
1 | O=C(N[C@@H](Cc1ccc(O)cc1)C(=O)N1CCC(=C2c3ccc(Cl)cc3CCc3cccnc32)CC1)OCc1ccccc1 [Example 46] | 1.2 µM | – | – | – | IC50 [2]: > 8 µM; IC50 [3]: > 50 µM
2 | CN1CCC(CC(=O)N2CCN(C3c4ccc(Cl)cc4CCc4cccnc43)CC2)CC1 (centres unmarked) [Example 201] | 1.4 µM | 0.93 µM | 3.1 µM | 12.5 µM | –
3 | O=C(Cc1ccc[n+]([O-])c1)N1CCC(=C2c3ccc(Cl)cc3CCc3cc(Br)cnc32)CC1 [Example 411-G] | – | 5.1 µM | 6.25 µM | > 25 µM | IC50 [1, 6]: 0.7 µM; IC50 [4]: 4 µM; IC50 [3]: > 12.5 µM
4 | COc1cnc2c(c1)CCc1cc(Cl)ccc1C2=C1CCN(C(=O)Cc2cccnc2)CC1 [Example 239, 4-(8-Chloro-3-methoxy-5,6-dihydro-11H-benzo[5,6]cyclohepta[1,2-b]pyridin-11-ylidene)-1-[(3-pyridinyl]acetyl]-piperidine] | 1.75 µM | 4.6 µM | 37 µM | > 50 µM | –
5 | O=C(Cc1ccncc1)N1CCC(=C2c3ccc(Br)cc3CCc3cccnc32)CC1 [181 (5.48)] | – | 1.1 µM | < 3.1 µM | > 50 µM | –
6 | CC(C)(C(=O)N1CCN(C2c3ccc(Cl)cc3CCc3cc(Br)cnc32)CC1)c1cccnc1 (centres unmarked) [Example 353] | 0.76 µM and 0.3 µM | 0.9 µM | 6.25 µM | > 25 µM | –
7 | O=C(Cc1ccncc1)N1CCC(=C2c3ccc(Cl)cc3C(O)Cc3cccnc32)CC1 (centres unmarked) [Example 286] | 1.5 µM | 8.3 µM | 25 µM | > 50 µM | –
8 | O=C(Nc1cccnc1)N1CCN(C2c3ccc(Cl)cc3CCc3cccnc32)CC1 (centres unmarked) [187 (6.7)] | 1.34 µM | 4.8 µM | 37 µM | > 50 µM | IC50 [4]: 25 µM
9 | CC(C)(C(=O)N1CCN(C2c3ccc(Cl)cc3CCc3cc(Br)cnc32)CC1)c1cc[n+]([O-])cc1 (centres unmarked) [Example 425-J] | – | 5 µM | 3.1 µM | > 25 µM | IC50 [1, 6]: 0.39 µM
10 | CC(C)(C(=O)N1CCN(C2c3ccc(Cl)cc3CCc3cccnc32)CC1)c1cccnc1 (centres unmarked) [Example 198] | – | 6.1 µM | 12.5 µM | > 50 µM | –
11 | O=C(Cc1ccncc1)N1CCC(=C2c3ccccc3CCc3ccccc32)CC1 [Example 87] | 1.14 µM | 12.7 µM | 50 µM | > 50 µM | –
12 | O=C(Cc1cc[n+]([O-])cc1)N1CCN([C@H]2c3ccc(Cl)cc3CCc3cccnc32)CC1 [Example 425-E] | – | 5 µM | 1.6 µM | > 25 µM | IC50 [1, 6]: 0.49 µM
13 | CC(C)(C)C(=O)N1CCC(=C2c3ccc(Cl)cc3CCc3cccnc32)CC1 [Example 53] | 1.5 µM | – | – | – | IC50 [2]: > 13 µM; IC50 [4]: 25 µM; IC50 [3]: > 50 µM
14 | CC(=O)N1CCC(CC(=O)N2CCN([C@H]3c4ccc(Cl)cc4CCc4cccnc43)CC2)CC1 [225 (5.99)] | 1.6 µM | 6.2 µM | 12.5 µM | > 50 µM | –
15 | O=C(Cc1ccc[n+]([O-])c1)N1CCC(C2c3ccc(Cl)cc3CCc3cccnc32)CC1 (centres unmarked) [Example 233] | 0.67 µM | 10 µM | 18 µM | > 50 µM | –
16 | O=C(Cc1ccncc1)N1CCC(C2c3ccc(Cl)cc3C=Cc3cc([N+](=O)[O-])cnc32)CC1 (centres unmarked) [Example 411-B] | – | 1.8 µM | 6.25 µM | > 25 µM | IC50 [1, 6]: 0.32 µM
17 | O=C(Cc1ccncc1)N1CCC(C2c3ccc(Cl)cc3CCc3cccnc32)CC1 (centres unmarked) [Example 82, 4-(8-chloro-6,11-dihydro-5H-benzo-[5,6]cyclohepta[1,2-b]pyridin-11-yl)-1-[(4-pyridinyl)acetyl]-piperidine] | 0.16 µM and 0.36 µM | 1.2 µM | 3.1 µM | 40 µM | –
18 | CCc1cc2c(cc1Cl)C=Cc1cccnc1C2C1CCN(C(=O)Cc2ccncc2)CC1 (centres unmarked) [Example 417] | – | 4 µM | 10 µM | 18 µM | IC50 [1, 6]: 1.16 µM
19 | O=C(Cc1ccncc1)N1CCC(=C2c3ccc(Cl)cc3CCc3c(Cl)ccnc32)CC1 [248 (5.123)] | 0.19 µM | – | – | – | IC50 [2]: 4.6 µM; IC50 [4]: 18 µM; IC50 [3]: > 50 µM

Row | Compound | IC50 [1, 5] | IC50 ([2]; Primates, COS) | IC50 ([4]; Homo sapiens) | IC50 ([3]; Homo sapiens, Fibroblast) | further results
20 | O=C(Cc1cc[n+]([O-])cc1)N1CCC(=C2c3ccc(Cl)cc3CCc3cc(Br)cnc32)CC1 [Example 400-L] | 0.095 µM and 0.09 µM | 0.6 µM | < 1.6 µM | > 25 µM | IC50 [1, 6]: 0.095 µM and 0.09 µM; IC50 [2]: 0.65 µM; IC50 [4]: < 0.8 µM; IC50 [3]: > 12.5 µM
21 | O=C(Cc1ccncc1)N1CCN(C2c3ccc(Cl)cc3CCc3cc(Br)cnc32)CC1 (centres unmarked) [Example 426] | – | 0.38 µM | – | 25 µM | IC50 [1, 6]: 0.012 µM; IC50 [3]: > 12.5 µM
22 | O=C1Cc2cc(Cl)ccc2C(=C2CCN(C(=O)Cc3ccncc3)CC2)c2ncccc21 [Example 281] | 2.9 µM | 7 µM | 4 µM | > 50 µM | –
23 | O=C(Cc1ccncc1)N1CCC(C2c3ccc(Cl)cc3C=Cc3cccnc32)CC1 (centres unmarked) [Example 269] | – | 0.69 µM | 6.25 µM | 12.5 µM | –
24 | O=C(Cc1ccncc1)N1CCC(=C2c3ccc(Cl)cc3CCc3ccc(Cl)nc32)CC1 [248 (5.124)] | 1.2 µM | 2.05 µM | 18 µM | > 50 µM | –
25 | CN1CCC(CC(=O)N2CCN(C3c4ccc(Cl)cc4CCc4cc(Br)cnc43)CC2)CC1 (centres unmarked) [Example 425-O] | – | – | – | 6.25 µM | IC50 [1, 6]: 0.17 µM and 0.14 µM and 0.122 µM and 0.118 µM and 0.178 µM; Toxicity in COS cells at the concentration in parentheses ([2]; (10) μM): tox (10)
26 | CN1CCCC(CC(=O)N2CCN(C3c4ccc(Cl)cc4CCc4cccnc43)CC2)C1 (centres unmarked) [Example 206] | 1.19 µM | 2.4 µM | < 3.1 µM | 16 µM | –
27 | CN1CCC(CC(=O)N2CCN(C3c4ccc(Cl)cc4CCc4c(Cl)ccnc43)CC2)CC1 (centres unmarked) [Example 425-P] | – | 5.7 µM | > 3.1 µM | 3.1 µM | IC50 [1, 6]: 0.45 µM
28 | O=C(C(=O)N1CCC(=C2c3ccc(Cl)cc3CCc3cccnc32)CC1)c1ccc([N+](=O)[O-])cc1 [Example 295] | 2.4 µM | 20.8 µM | – | – | –
29 | O=C(Cc1ccncc1)N1CCC(=C2c3ccc(Cl)cc3CCc3ccc[n+]([O-])c32)CC1 [230 (5.105)] | – | – | – | – | IC50 [2]: > 20 µM; IC50 [4]: 37 µM; IC50 [3]: > 50 µM
30 | O=C(Cc1cccnc1)N1CC=C(C2c3ccc(Cl)cc3CCc3cccnc32)CC1 (centres unmarked) [Example 410-D] | – | 18.5 µM | 10 µM | > 50 µM | –
31 | O=C(Cc1cccnc1)N1CCN(C2c3ccc(Cl)cc3CCc3cccnc32)CC1 (centres unmarked) [Example 78] | – | < 4.6 µM | – | – | IC50 ([1]; FPT IC50, Ras-CVLS farnesylation, partially purified rat brain FPT): 1 µM and 0.42 µM; IC50 ([1]; FPT IC50, enzyme inhibition): 2.19 µM and 0.53 µM and 0.74 µM and 0.76 µM and 0.97 µM
32 | CC(C)(C(=O)N1CCC(=C2c3ccc(Cl)cc3C=Cc3cccnc32)CC1)c1cccnc1 [Example 278] | 0.88 µM | 2.6 µM | – | – | –
33 | CS(=O)(=O)OCC(C(=O)N1CCC(=C2c3ccc(Cl)cc3CCc3cccnc32)CC1)c1ccccc1 (centres unmarked) [Example 83, 8-chloro-11-[1-(2-methanesulfonyl-oxy-1-phenylethylcarbonyl)-4-piperidylidene]-6,11-dihydro-5H-benzo-[5,6]cyclohepta-[1,2-b]pyridine] | 0.59 µM | 7.4 µM | – | – | –
34 | O=C(Cc1ccc[n+]([O-])c1)N1CCN(C2c3ccc(Cl)cc3CCc3ccc[n+]([O-])c32)CC1 (centres unmarked) [185 (5.61)] | 3.8 µM | > 20 µM | – | – | –
35 | Cc1ccc2c(c1)CCc1cccnc1C2=C1CCN(C(=O)Cc2ccncc2)CC1 [Example 434] | – | < 5 µM | – | – | FPT inhibition at the concentration in parentheses ([1]; (0.48) μM): 70 (0.48); IC50 [1, 6]: 0.26 µM
36 | O=C(Nc1cccnc1)N1CCC(=C2c3ccc(Cl)cc3CCc3c(Cl)ccnc32)CC1 [Example 261] | 1.3 µM | 9.1 µM | – | – | –
37 | O=C(Nc1cccnc1)N1CCC(C2c3ccc(Cl)cc3C=Cc3c(Cl)ccnc32)CC1 (centres unmarked) [Example 274] | 0.91 µM and 1.38 µM | 8 µM | – | – | –
